Assay results from ChEMBL document CHEMBL3400078, “Constituents of the stem barks of Ailanthus altissima and their potential to inhibit LPS-induced nitric oxide production” (Bioorg Med Chem Lett, 2015).

These compounds were tested on RAW264.7 (assay: Antiinflammatory activity in mouse RAW264.7 cells assessed as decrease in LPS-induced NO production after 24 hrs by Griess assay). Conditions: RAW264.7, 24 h.
Assay type: functional, cell-based

Row | SMILES | IC50
1 | COc1cc([C@H]2OC[C@H]3[C@@H]2CO[C@@H]3c2cc(OC)c(O)c(OC)c2)cc(OC)c1O [SYRINGARESINOL] | 21.6 µM
2 | O=c1ccc2ncc(O[C@@H]3O[C@H](CO)[C@@H](O)[C@H](O)[C@H]3O[C@@H]3OC[C@](O)(CO)[C@H]3O)c3c4ccccc4n1c23 | 63.5 µM
3 | C=C1[C@H](O)[C@]2(O)OC[C@]34[C@H]2[C@@]2(C)[C@H](O)[C@@H](O)C=C(C)[C@@H]2C[C@H]3OC(=O)C[C@@H]14 [SHINJULACTONE A] | 56.4 µM
4 | O=C(O)c1ccc(O)cc1 [PARABEN] | 72.8 µM
5 | O=C(O)/C=C/c1ccc(O)cc1 [COUMARIC ACID] | 73.4 µM
6 | COc1cc(C(=O)CCO)ccc1O | 43.8 µM
7 | COc1cc(C(=O)O)ccc1O [VANILLIC ACID] | 23.2 µM
8 | C=C1[C@@H](O)[C@]2(O)OC[C@]34[C@H]2[C@@]2(C)[C@H](O)[C@@H](O[C@@H]5O[C@H](CO)[C@@H](O)[C@H](O)[C@H]5O)C=C(C)[C@@H]2C[C@H]3OC(=O)C[C@@H]14 | 100 µM
9 | CC(=N)NCCCC[C@H](N)C(=O)O [L-NIL] | 15.8 µM
10 | COc1cc(/C=C/C(=O)O)ccc1O[C@@H]1O[C@H](CO)[C@@H](O)[C@H](O)[C@H]1O | 71.6 µM
11 | C[C@@](O)(CC(=O)O)CC(=O)OC[C@H]1O[C@@H](Oc2cnc3ccc(=O)n4c5ccccc5c2c34)[C@H](O[C@@H]2OC[C@](O)(CO)[C@H]2O)[C@@H](O)[C@@H]1O | > 100 µM
12 | COc1cc2ccc(=O)oc2c(OC)c1O | > 100 µM
13 | C[C@@](O)(CC(=O)O)CC(=O)OC[C@H]1O[C@@H](Oc2cnc3ccc(=O)n4c5ccccc5c2c34)[C@H](O)[C@@H](O)[C@@H]1O | 85 µM
14 | COc1cc(/C=C/C(=O)O)ccc1O [FERULATE] | > 100 µM
15 | CC1=CC(=O)[C@@H](O)[C@]2(C)[C@H]3[C@@]4(O)C(=O)OC[C@@]35[C@@H](C[C@@H]12)OC(=O)C[C@H]5[C@H]4C [SHINJUDILACTONE] | 63.1 µM
